Key:
vitamin D receptor (VDR) = target: T1, vitamin D receptor (VDR) (Homo sapiens, UniProt P11473); assay: vitamin D-dependent transcriptional activation: growth hormone production in transfected COS-1 cells; type: cell-based; conditions: transfected COS-1 cells
T1 construct: RXR partner endogenous (monkey)
T1 sequence (P11473 1-427): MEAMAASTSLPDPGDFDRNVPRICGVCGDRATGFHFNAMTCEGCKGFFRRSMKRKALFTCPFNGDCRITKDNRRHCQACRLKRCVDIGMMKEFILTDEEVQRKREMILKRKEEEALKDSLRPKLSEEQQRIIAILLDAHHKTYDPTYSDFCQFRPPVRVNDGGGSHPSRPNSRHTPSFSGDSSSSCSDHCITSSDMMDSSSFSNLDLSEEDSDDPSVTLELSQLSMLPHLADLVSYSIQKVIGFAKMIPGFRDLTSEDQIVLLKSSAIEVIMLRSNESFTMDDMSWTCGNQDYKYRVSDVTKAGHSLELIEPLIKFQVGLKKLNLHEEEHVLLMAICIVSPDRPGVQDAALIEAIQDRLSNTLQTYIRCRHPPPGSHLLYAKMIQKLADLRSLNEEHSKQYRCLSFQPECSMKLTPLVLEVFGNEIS
Protocol: The biological activity in vitro of chemically synthesized 1α,24(S)-(OH)2 D2 and 1α,24(R)-(OH)2 D2 was measured using a vitamin D-dependent transcriptional activation model system in which a vitamin D receptor (VDR)-expressing plasmid pSG5-hVDR1/3and a plasmid p(CT4)^4 TKGH containing a Growth Hormone (GH)-gene, under the control of a vitamin D-responsive element (VDRE) were co-transfected into Green monkey kidney, COS-1 cells. DNA's for these two vectors were supplied by Dr. Mark Haussler, Department of Biochemistry, University of Arizona, Tucson, Ariz.
Tranfected cells were incubated with vitamin D metabolites and growth hormone production was measured.

Human keratinocytes = assay: epidermal cell differentiation and proliferation testing; type: cell-based; conditions: 0.05 to 5 μg/ml, versus ethanol control cultures
Protocol: Human keratinocytes are cultured according to known modifications of the system originally described by Rheinwald and Green (Cell, vol. 6, p. 331 (1975)). The 1α,24(S)-dihydroxy vitamin D2, dissolved in ethanol, is added to cells to yield a variety of concentrations between 0.05 and 5 μg/ml with the ethanol concentration not to exceed 0.5% v/v. Control cultures are supplemented with ethanol at a final concentration of 0.5% v/v.
Differentiation and proliferation of epidermal cells in culture is examined by:
1. quantitation of cornified envelopes;
2. quantitation of cell density of cells attached to disks;
3. monitoring transglutaminase activity; or
4. monitoring DNA synthesis by incorporation of ^3 H-thymidine.

[1] = tested on: postmenopausal osteoporotic out-patients; assay: preventive treatment of bone mass loss in postmenopausal osteoporotic women; type: in vivo, human; conditions: at or above 1.0 μg/day, 24 to 36 months
Protocol: A clinical study is conducted with postmenopausal osteoporotic out-patientshaving ages between 55 and 75 years. The study involves up to 120 patients randomly divided into three treatment groups and continues for 24 to 36 months. Two of the treatment groups receive constant dosages of 1α,24(S)-dihydroxy vitamin D2 (u.i.d.; two different dose levels at or above 1.0 μg/day) and the other group receives a matching placebo. All patients maintain a normal intake of dietary calcium (500 to 800 mg/day) and refrain from using calcium supplements. Efficacy is evaluated by pre-and post-treatment comparisons of the patient groups with regard to (a) total body calcium retention, and (b) radial and spinal bone mineral density as determined by dual-photon absorptiometry (DPA) or dual-energy x-ray absorptiometry (DEXA). Safety is evaluated by comparisons of urinary hydroxyproline excretion, serum and urine calcium levels, creatinine clearance, blood urea nitrogen, and other routine determinations.

[2] = tested on: dermatitis (contact and ectopic) patients; assay: dermatological testing, topical treatment of dermatitis; type: in vivo, human; conditions: ointment 10 μg per gram, twice daily, four to six weeks
Protocol: Compositions containing 1α,24(S)-dihydroxy vitamin D2 are evaluated for therapeutic efficacy of the composition in the topical treatment of dermatitis (contact and ectopic). The composition evaluated is an ointment containing 10 μg of 1α,24-dihydroxy vitamin D2 per gram of ointment in a petrolatum-almond oil base. […] The patients are treated in an out-patient clinic. They are instructed to use the preparation two times a day.
The ointment is as far as possible applied to a single lesion, or to an area of the disease. The ointment and its container are weighed before the treatment starts and returned with any unused contents for reweighing at the end of the treatment.
The area of the lesion treated is estimated and recorded, and the lesion is photographed as required, together with suitable "control" lesions. The latter are preferably lesions of similar size and stage of development, either in the vicinity of the treated lesion or symmetrically contralateral. Relevant details of the photographic procedure are recorded so as to be reproduced when the lesions are next photographed (distance, aperture, angle, background, etc.). The ointment is applied twice daily and preferably left uncovered. The "control" lesions are left untreated, but if this is not possible, the treatment used on them is noted. […]

[3] = target: T2, vitamin D serum binding protein (DBP) (Rattus norvegicus, UniProt P04276); assay: affinity for vitamin D serum binding protein in vitamin D deficient rat serum
T2 sequence (P04276 17-476): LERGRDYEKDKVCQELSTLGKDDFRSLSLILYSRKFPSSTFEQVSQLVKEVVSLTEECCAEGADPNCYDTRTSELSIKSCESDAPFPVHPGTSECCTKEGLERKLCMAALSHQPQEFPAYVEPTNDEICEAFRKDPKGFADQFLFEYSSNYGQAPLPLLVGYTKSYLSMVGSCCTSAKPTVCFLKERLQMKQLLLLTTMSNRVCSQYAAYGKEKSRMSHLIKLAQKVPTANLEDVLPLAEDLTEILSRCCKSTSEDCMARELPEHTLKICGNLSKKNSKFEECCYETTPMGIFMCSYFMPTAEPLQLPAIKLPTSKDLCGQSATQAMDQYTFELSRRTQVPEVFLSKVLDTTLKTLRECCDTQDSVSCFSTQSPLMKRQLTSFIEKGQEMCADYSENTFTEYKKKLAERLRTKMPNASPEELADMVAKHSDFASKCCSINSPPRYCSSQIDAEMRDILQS
Description: In addition, the weak binding by the DBP was indicative of more rapid clearance, allowing for low toxicity.

[4] = tested on: healthy postmenopausal women; assay: prophylaxis of postmenopausal bone loss; type: in vivo, human; conditions: at or above 1.0 μg/day
Protocol: A clinical study is conducted with healthy postmenopausal women having ages between 55 and 60 years. The study involves up to 80 patients randomly divided into two treatment groups, and continues for 24 to 36 months. One treatment group receives a constant dosage of 1α,24(S)-dihydroxy vitamin D2 (u.i.d.; a dose level at or above 1.0 μg/day) and the other receives a matching placebo. The study is conducted as indicated in Example 2 above.

Compound: C=C1/C(=C\C=C2/CCC[C@]3(C)[C@@H]([C@H](C)/C=C/[C@@](C)(O)C(C)C)CC[C@@H]23)C[C@@H](O)C[C@@H]1O [1α,24(S)-(OH)2 D2, 1α,24(S)-dihydroxy vitamin D2]
- activity in the transcriptional activation system compared with the 24(R) epimer (vitamin D receptor (VDR)): significantly more activity in this system than 1α,24(R)-(OH)2 D2
- DNA synthesis by incorporation of 3H-thymidine (Human keratinocytes): lower DNA synthesis
- cell density of cells attached to disks (Human keratinocytes): fewer attached cells
- cornified envelopes (Human keratinocytes): more cornified envelopes
- transglutaminase activity (Human keratinocytes): higher transglutaminase activity
- incidence of hypercalcemia, hypercalciuria or other metabolic disturbance [1]: insignificant incidence of hypercalcemia or hypercalciuria, or any other metabolic disturbance
- total body calcium, radial and spinal bone densities relative to placebo [1]: significantly higher total body calcium, and radial and spinal bone densities relative to patients treated with placebo
- lesion severity score (erythema, scaling, thickness; 0 to 3) [2]: lower scores than the control lesions
- binding affinity for the vitamin D serum binding protein [3]: relatively poor binding affinity
- binding to the vitamin D serum binding protein relative to 1,25-(OH)2 D3 [3]: more weakly than does 1,25-(OH)2 D3
- losses in total body calcium, radial or spinal bone densities relative to baseline ([4]; 24 to 36 months): reduced losses in total body calcium, radial or spinal bone densities relative to baseline values
- monitored safety parameters ([4]; long-term administration): confirm the safety of long-term 1α,24(S)-dihydroxy vitamin D2 administration
